≈ marks a conversion by molar mass, not a printed value. Like-named read-outs stand apart in the source and are kept apart here.
Legend:
[1] = tested on: Mycobacterium tuberculosis H37Rv; test: MIC determination (PrestoBlue); format: cell-based; conditions: Mycobacterium tuberculosis, H37RV
[2] = tested on: Staphylococcus epidermidis ATCC 12228; test: MIC determination; format: cell-based; conditions: Staphylococcus epidermidis, ATCC12228
[3] = tested on: Enterococcus faecium 33D3; conditions: E. faecium isolate 3303
[4] = tested on: E. faecium clinical isolate 55A6 (vancomycin and daptomycin resistant); test: microbe, parasite or virus in culture; conditions: Enterococcus faecium
[5] = tested on: E. faecium strains 3303, 69C6, 58C9 and 55A6; test: Kill curves (CFU by serial dilution); format: cell-based, Enterococcus faecium
[6] = tested on: E. faecium clinical isolate 58C9 (vancomycin and daptomycin resistant); conditions: E. faecium isolate 58c9
[7] = tested on: Enterococcus faecium 33D3; test: microbe, parasite or virus in culture
[8] = tested on: Streptococcus pyogenes ATCC 51878; test: MIC determination; format: cell-based; conditions: Streptococcus pyogenes, ATCC51878
[9] = tested on: E. faecium clinical isolate 55A6 (vancomycin and daptomycin resistant); conditions: E. faecium isolate 55a6
[10] = tested on: E. faecium clinical isolate 69C6 (vancomycin resistant); conditions: E. faecium isolate 69C6
[11] = tested on: Staphylococcus aureus MRSA; test: microbe, parasite or virus in culture; format: cell-based
[12] = tested on: E. faecium clinical isolate 58C9 (vancomycin and daptomycin resistant); test: microbe, parasite or virus in culture; conditions: Enterococcus faecium
Enterococcus faecalis = test: MIC determination; format: cell-based
E. faecium 3303 = test: microbe, parasite or virus in culture; format: cell-based, Enterococcus faecium; conditions: E. faecium 3303; for Max. fold change in MIC: decrease
Text: In therapeutic applications, synergy between active ingredients occurs when an observed combined therapeutic effect is greater than the sum of therapeutic effects of individual active ingredients, or a new therapeutic effect is produced that the active ingredients could not produce alone. […] In this context, the enhancement of therapeutic effect may take the form of increased efficacy or potency and/or decreased adverse effects. The synergistic effect may be mediated in whole or in part by the pharmacokinetics and/or pharmacodynamics of the active ingredients in a subject, so that the amount and proportion of the ingredients in the formulation may be synergistic in vivo. This in vivo synergy may be effected with a formulation that includes the active ingredients in amounts and proportions that are also synergistic in in vitro assays of efficacy. As used herein, the term “synergistically effective amounts” accordingly refers to amounts that are synergistic in vivo and/or in vitro. A numeric quantification of synergy is often expressed as a fractional inhibitory concentration index (FICI), which represents the sum of the fractional inhibitory concentrations (FICs) of each drug tested, where the FIC is determined for each drug by dividing the minimum inhibitory concentration (MIC, the lowest concentration of the drug which prevents visible growth of the bacterium in a standard in vitro assay-standard colorometric assay based on resazurin) of each drug when used in combination by the MIC of each drug when used alone. In very general terms, a FICI lower or higher than 1 indicates positively correlated activity (at least additive or potentiation) or an absence of positive interactions, respectively. More definitively, synergy of two compounds may be conservatively defined as a FICI of ::::0.5 (see Odds, 2003; with additivity or potentiation corresponding to a FICI of >0.5 to ::::0.75; no interaction (indifference) corresponding to a FICI of >1 to ::::4; and antagonism corresponding to a FICI of >>4). Synergy of three compounds has been defined as a FICI of ::::1.0. (Berenbaum, 1978; Yu et al., 1980). To estimate the optimal concentrations in triple combinations, the optimal concentrations of trans-caryophyllene and cannabinoid were utilized in combination with a series of daptomycin dilutions.
Pre-cultures of bacteria growing in their corresponding liquid media (defined below) were diluted to an 00600 of 0.0025 and 100 μl was added to 100 μl of medium containing serial 2-fold dilutions of cannabinoid (cannabinoid stocks, in methanol or acetonitrile for acidic forms, were diluted in growth medium) in 96-well plates. Plates were then incubated for 20-24 h at 37° C., and growth was recorded as 00600 in a Thermo Scientific™ Varioskan™ Flash Multimode Reader.
Method for Tables 4-7. Interaction of Cannabinoids CBC, CBD and CBG with Terpenes and Daptomycin:
FICI values was determined in a 96 well checkerboard format using the MIC assay for cannabinoids (compound A), terpenes (compound B), and daptomycin (compound C) alone and in combinations. Terpene stocks were prepared in DMSO and diluted in the growth medium. The fractional inhibitory concentration for each compound was calculated as follows: FICA=(MIC of compound A in the presence of compound B)/(MIC of compound A alone). Similarly, the FICs for compounds Band C were calculated. The FICI was calculated as FICA plus FICs plus FICc.

[13] = tested on: Staphylococcus epidermidis ATCC 14990; test: MIC determination; format: cell-based; conditions: Staphylococcus epidermidis, ATCC14990
[14] = tested on: E. faecium clinical isolate 69C6 (vancomycin resistant); test: microbe, parasite or virus in culture; conditions: Enterococcus faecium
[15] = tested on: Mycobacterium abscessus ATCC 19977; test: MIC determination (resazurin); format: cell-based; conditions: Mycobacteroides abscessus, ATCC19977
[16] = pairwise, with trans-caryophyllene
[17] = triple, with daptomycin and trans-caryophyllene

SMILES: CCCCCc1cc(O)c(C/C=C(\C)CCC=C(C)C)c(O)c1 [CBG, cannabigerol]
- MIC ([1]; Media 7H9, read-out: MIC): 2 µg/mL (≈ 6.32 µM)
- MIC ([1]; Media PB, read-out: MIC): 2 µg/mL (≈ 6.32 µM)
- MIC [2]: 2 µg/mL (≈ 6.32 µM)
- Fold reduction in daptomycin MIC in combination with the cannabinoid [3]: 32 Fold
- MIC [4]: 1 µg/mL (≈ 3.16 µM)
- kinetics of E. faecium killing ([5]; at equal concentrations of CBD, CBG, or CBC, FIG. 1): faster than for CBO
- bactericidal activity (viability, CFU) ([5]; cannabinoid alone, 1x-4x MIC, planktonic E. faecium, FIG. 1): bactericidal
- growth and CFU in combination with daptomycin ([5]; ½×MIC of cannabinoid with 1×-⅛×MIC of daptomycin, strains 3303, 58C9, 55A6): significantly inhibited growth of all strains and reduced CFU
- Fold reduction in daptomycin MIC in combination with the cannabinoid [6]: 64 Fold
- MIC ([7]; 33D3, Enterococcus faecium 33D3 (Table 1)): 1 to 2 µg/mL (≈ 3.16 to 6.32 µM)
- MIC ([7]; 33D3, clinical enterococcal strain 3303): 1 µg/mL (≈ 3.16 µM)
- MIC [8]: 1 µg/mL (≈ 3.16 µM)
- Fold reduction in daptomycin MIC in combination with the cannabinoid [9]: 4 Fold
- Fold reduction in daptomycin MIC in combination with the cannabinoid [10]: 4 Fold
- MIC [11]: 1 µg/mL (≈ 3.16 µM)
- MIC [12]: 1 µg/mL (≈ 3.16 µM)
- MIC (Enterococcus faecalis): 1 µg/mL (≈ 3.16 µM)
- MIC In combination (E. faecium 3303; pairwise, with daptomycin): 0.125 µg/mL
- Max. fold change in MIC (E. faecium 3303; pairwise, with daptomycin): 32″′ fold
- MIC In combination (E. faecium 3303; [16]): 0.125 µg/mL
- Max. fold change in MIC (E. faecium 3303; [16]): 16″′ fold
- MIC In combination (E. faecium 3303; [17]): 0.25 µg/mL
- Max. fold change in MIC (E. faecium 3303; [17]): 4 fold
- MIC [13]: 1 to 2 µg/mL (≈ 3.16 to 6.32 µM)
- MIC [14]: 1 µg/mL (≈ 3.16 µM)
- MIC [15]: 2 µg/mL (≈ 6.32 µM)

Source: patent US11744819B2, “Antibiotic cannabinoid-terpene formulations” (priority 2019, dated 2023)
